Laboratory results from publication PMC10057994, “Click Triazole as a Linker for Pretargeting Strategies: Synthesis, Docking Investigations, Fluorescence Diagnosis, and Antibacterial Action Studies” (Molecules, 2023).

How the values were obtained:
RAW264.7 cell = experiment: MTT cell proliferation (cytotoxicity) assay; assay type: cell-based; details: for IC50: MTT, 36 h treatment
Method: The “click” reaction conditions in click chemistry require copper sulfate and sodium ascorbate as catalysts, and the copper sulfate concentration is generally too high, which causes certain damage to the body. RAW264.7 cells were used as test cells to explore the safe concentration of copper sulfate, compounds A1–A3, and probes T1–T4. The macrophage suspension of RAW264.7 cells in the logarithmic growth stage was adjusted to 5 × 10^4 cells/mL and seeded in 96-well plates with 100 µL in each well. The cells were incubated at 37 °C and 5% CO2 for 24 h and then treated with different concentrations of copper sulfate solution (each concentration was repeated three times). After being treated with copper sulfate for 36 h, 10 µL MTT (5 mg/mL) was added to each well, and the cells were incubated at 37 °C and 5% CO2 for 4 h. Then, the MTT in the well was discarded, and 100 µL DMSO was added to each well and incubated at 37 °C for 0.5 h until the crystals were completely dissolved. The microplate reader read the OD490 nm of each well. The cytotoxicity assays of compounds A1–A3 and probes T1–T4 were the same as above. The cell proliferation inhibition rate (IC50) was calculated using SPSS 16.0 software.

[1] = tested on: Agrobacterium tumefaciens; experiment: Antibacterial activity, LB plate microdilution test; assay type: cell-based; details: for antibacterial activity: cultured for 8 h
Method: The compounds A1–A3 were evaluated through the plate microdilution test according to the guidelines of the Clinical and Laboratory Standards Institute (CLSI). A colony of Agrobacterium tumefaciens grown on lysogeny broth (LB) agar plates was inoculated in lysogeny broth (LB) and incubated in an aerobic environment at 28 °C overnight (ON). The bacterial suspension was diluted to 5 × 10^7 CFU/mL, and 200 µL was added to each well, obtaining a final density of […]. Meanwhile, A1–A3 were serially diluted in 1X PBS at concentrations of 30, 50, and 100 µmol/L. Cefuroxime was used as an antibiotic control and DMSO as a solvent control. Subsequently, the plates were incubated at 28 °C in aerobiosis, and the growth rate was evaluated after 4, 6, 8, and 10 h using an ultraviolet (UV) detector.

[2] = UV-Vis absorption spectroscopy; assay type: physicochemical; details: in methanol
Method: (§1) The ^1H NMR and ^13C NMR spectra were recorded at 25 °C in a Nuclear Magnetic Resonance Spectrophotometer (DRX-400, Bruker, Bremerhaven, Germany) at 400 MHz for ^1H NMR in DMSO-d6 and 100 MHz for ^13C NMR in CDCl3. Thin layer chromatography (TLC) was carried out on silica gel (GF254, Qingdao Haiyang Chemical Co., Ltd., Qingdao, China), and the spots were visualized with UV light at 254 nm. Fluorescence spectra were recorded on a fluorescence spectrophotometer (F-2710, Hitachi, Tokyo, Japan). UV-Vis spectrophotometer (UH5300, Hitachi, Tokyo, Japan) was used for the absorption measurements and the spectra were typically measured in the range of 190–1100 nm.
The sample of the compounds (A1–A3) was diluted to 1 × 10^−5 mg/mL. After thorough mixing, the target molecules were detected using a UV spectrophotometer at UV absorption wavelengths. The volume of the sample needed to be greater than 2/3 of the cuvette volume. All experiments were performed in triplicate.

[3] = Fluorescence excitation and emission spectra; assay type: physicochemical
Method: as §1
The sample of probes (T1–T4) was diluted to 1 × 10^−5 mg/mL for fluorescence, excitation, and emission spectra measurement by a fluorescence spectrophotometer. All experiments were performed in triplicate.

[4] = tested on: Agrobacterium tumefaciens; experiment: Fluorescence detection of Agrobacterium tumefaciens by diagnostic molecules (click in situ, fluorescence microscope); assay type: cell-based; details: inhibitor 8 h (A1 30, A2 50, A3 50 µmol/L), then same amount of probe, copper sulfate and sodium ascorbate, click 1 h; probe-only controls
Method: An amount of 3 mL of the standby Agrobacterium solution at a concentration of 5 × 10^3 CFU/mL was added to the shaker tube. Then, 200 µL of A1 at a concentration of 30 µmol/L, A2 at a concentration of 50 µmol/L, and A3 at a concentration of 50 µmol/L were added at 28 °C. After incubation at 200 RPM/min for 8 h, the upper layer of the medium was poured off after centrifugation and washed three times with PBS, and the bacterial solution was resuspended by adding 1 mL of medium. Then, the same amount of probe was added, and 15 µL copper sulfate and sodium ascorbate were added at a concentration of 10 µmol/L. The control group was treated with only the corresponding probe, and the concentration of each probe was the same as that of the corresponding inhibitor. After adding probes to each group, the “click” reaction was complete for 1 h. After centrifugation, the upper layer of the medium was poured off and washed three times with PBS. Then, 1 mL of the medium was added to resuspend the bacterial solution, and 10 µL was added to the slide for fluorescence microscope detection and observation of the fluorescence of Agrobacterium in each group.

| absorption maxima (λmax) [2] | best emission wavelength [3] | best excitation wavelength [3] | Compound | IC50 (RAW264.7 cell; Mus musculus) | other results |
| --- | --- | --- | --- | --- | --- |
| 352 nm |  |  | C#CCOc1ccc(O)c(C(=O)N/N=C/c2ccc(-c3ccccc3[N+](=O)[O-])o2)c1 [A1, (E)-2-hydroxy-N’-((5-(2-nitrophenyl)furan-2-yl)methylene)-5-(prop-2-ynyloxy)benzohydrazide] | > 98 µM | antibacterial activity ([1]; 30 µmol/L): 35% |
| 332 nm |  |  | C#CCNc1cccc(C(=O)N/N=C/c2ccc(-c3ccccc3[N+](=O)[O-])o2)c1 [A2, (E)-N’-((5-(2-nitrophenyl)furan-2-yl)methylene)-3-(prop-2-ynylamino)benzohydrazide] | > 96 µM | antibacterial activity ([1]; 50 µmol/L): 45%; antibacterial activity (in words) ([1]; Agrobacterium tumefaciens, 30-100 µmol/L, 4-10 h): better antibacterial activity than A1 and A3 |
| 346 nm |  |  | [N-]=[N+]=NCCOc1ccc(O)c(C(=O)N/N=C/c2ccc(-c3ccccc3[N+](=O)[O-])o2)c1 [A3, (E)-5-(2-azidoethoxy)-2-hydroxy-N’-((5-(2-nitrophenyl)furan-2-yl)methylene)benzohydrazide] | > 100 µM | antibacterial activity ([1]; 50 µmol/L): 35% |
|  | 310 nm | 273 nm | [N-]=[N+]=NCCOc1ccc(/C=N/c2ccccc2OCc2ccccc2[N+](=O)[O-])c(O)c1 [T1, (E)-2-((2-(2-nitrobenzyloxy)phenylimino)methyl)-5-(2-azidoethoxy)phenol] | > 100 µM |  |
|  | 315 nm | 273 nm | C#CCOc1ccc(/C=N/c2ccccc2O)c(O)c1 [T2, (E)-2-((2-hydroxyphenylimino)methyl)-5-(prop-2-ynyloxy)phenol] | > 92 µM |  |
|  | 377 nm | 327 nm | C#CCOc1ccc(-c2nc3ccccc3s2)c(O)c1 [T3, 2-(benzo[d]thiazol-2-yl)-5-(prop-2-ynyloxy)phenol] | > 100 µM | fluorescence of Agrobacterium tumefaciens [4]: did not emit fluorescence; melting point: 179 to 180 °C |
|  |  |  | O=S(=O)([O-])[O-].[Cu+2] [copper sulfate] |  | cell survival rate (RAW264.7 cell; copper sulfate concentration 12 µmol/L): 80% |

| Compound | absorption maxima (λmax) [2] | best emission wavelength [3] | best excitation wavelength [3] | IC50 (RAW264.7 cell; Mus musculus) | other results |
| --- | --- | --- | --- | --- | --- |
| (E)-5-(3-azidopropoxy)-2-((2-hydroxyphenylimino)methyl)phenol [T4] |  | 313 nm | 272 nm |  | IC50 (RAW264.7 cell): > 87 µM; fluorescence of Agrobacterium tumefaciens [4]: did not emit fluorescence |
